# Where a SMILES comes first, the peptide text is derived from it. Bridges are numbered along the chain shown (N, C = ends). [ ]: non-standard residue; d: D form. hPhe(3-Cl-4-CF3) = N[C@@H](CCc1ccc(C(F)(F)F)c(Cl)c1)C(=O)O; NPrPhe(4-CF3) = CCCN[C@@H](Cc1ccc(C(F)(F)F)cc1)C(=O)O; NMeGly(cPent) = CN[C@H](C(=O)O)C1CCCC1; NMeL = CN[C@@H](CC(C)C)C(=O)O; Ac5c = NC1(C(=O)O)CCCC1; Sar = CNCC(=O)O
# What was measured:
# [1] = target: GDP-bound NRAS wild-type protein (Homo sapiens, UniProt P01111); assay: Binding to NRAS by surface plasmon resonance (SPR), Single Cycle Kinetics
# [2] = target: GDP-bound HRAS wild-type protein (Homo sapiens, UniProt P01112); assay: Binding to HRAS by surface plasmon resonance (SPR), Single Cycle Kinetics
# [3] = KD ratio, GDP-bound NRAS wild-type vs GDP-bound KRAS wild-type, SPR
# [4] = KD ratio, GDP-bound HRAS wild-type vs GDP-bound KRAS wild-type, SPR
# [5] = SPR, GDP-bound NRAS wild-type vs GDP-bound KRAS wild-type
# [6] = SPR, GDP-bound HRAS wild-type vs GDP-bound KRAS wild-type
# GDP-bound NRAS wild-type protein, sequence (P01111 whole entry): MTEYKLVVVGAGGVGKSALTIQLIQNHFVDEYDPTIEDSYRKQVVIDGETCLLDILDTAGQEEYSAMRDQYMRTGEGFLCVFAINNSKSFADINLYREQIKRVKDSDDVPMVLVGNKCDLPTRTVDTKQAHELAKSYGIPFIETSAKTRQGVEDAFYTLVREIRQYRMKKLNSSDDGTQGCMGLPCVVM
# GDP-bound HRAS wild-type protein, sequence (P01112 whole entry): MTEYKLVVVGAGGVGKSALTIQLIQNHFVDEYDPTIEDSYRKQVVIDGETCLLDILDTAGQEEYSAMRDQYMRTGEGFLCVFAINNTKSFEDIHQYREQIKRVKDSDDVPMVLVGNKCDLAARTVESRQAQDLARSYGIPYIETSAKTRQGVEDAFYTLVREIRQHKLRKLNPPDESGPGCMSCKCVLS
structure (smiles),measurement,setting,value
CCO[C@@H]1C[C@H]2C(=O)NC3(CCC3)C(=O)N(C)[C@@H](C3CCCC3)C(=O)N(C)[C@H](C(=O)N(CC)CC)CC(=O)N(C)[C@@H](CC(C)C)C(=O)N[C@@H]([C@@H](C)CC)C(=O)N(C)CC(=O)N(C)[C@H]3C/C=C\CCN(C3=O)[C@@H](Cc3ccc(C)cc3)C(=O)N(C)CC(=O)N[C@@H](CCc3ccc(C(F)(F)F)c(OC)c3)C(=O)N2C1 [PP1851],NRAS/KRAS (ratio of KD value for NRAS to KD value for KRAS),[1]; [3],A (a compound having 10 or more and less than 20 is denoted as A)
same,HRAS/KRAS (ratio of KD value for HRAS to KD value for KRAS),[2]; [4],A (a compound having 10 or more and less than 20 is denoted as A)
CCC(CC)[C@H]1C(=O)N(C)[C@H](C(=O)N(C)C)CC(=O)N(C)[C@@H](CC2CC2)C(=O)N[C@@H]([C@@H](C)CC)C(=O)N(C)CC(=O)N(C)[C@H]2C/C=C\CCN(C2=O)[C@@H](CC2CCC(F)(F)CC2)C(=O)N(C)CC(=O)N[C@@H](CCc2ccc(C(F)(F)F)c(OC)c2)C(=O)N2C[C@@H](C)C[C@H]2C(=O)NC2(CC(C)(C)C2)C(=O)N1C [PP2494],NRAS/KRAS (ratio of KD value with respect to NRAS to KD value with respect to KRAS),[1]; [5],A (a compound having 10 or more and less than 20 is denoted as A)
same,HRAS/KRAS (ratio of KD value with respect to HRAS to KD value with respect to KRAS),[2]; [6],A (a compound having 10 or more and less than 20 is denoted as A)
CC[C@H](C)[C@@H]1NC(=O)[C@H](COC)N(C)C(=O)C[C@@H](C(=O)N(C)C)N(C)C(=O)[C@H](C2CCCC2)N(C)C(=O)C2(CC(C)(C)C2)NC(=O)[C@@H]2CCCCN2C(=O)[C@H](CCc2cc(F)c(C(F)(F)F)c(F)c2)NC(=O)CN(C)C(=O)[C@H](Cc2ccc(C(F)(F)F)cc2)N2CC/C=C\C[C@@H](C2=O)N(C)C(=O)CN(C)C1=O [PP2907],NRAS/KRAS (ratio of KD value with respect to GDP-bound NRAS wild-type protein to KD value with respect to KRAS),"[1]; KD ratio NRAS/KRAS, class symbols",AA (a compound having 20 or more is denoted as AA)
same,HRAS/KRAS (ratio of KD value with respect to GDP-bound HRAS wild-type protein to KD value with respect to KRAS),"[2]; KD ratio HRAS/KRAS, class symbols",A (a compound having 10 or more and less than 20 is denoted as A)
CCO[C@@H]1C[C@H]2C(=O)NC3(CC(C)(C)C3)C(=O)N(C)[C@@H](C3CCCC3)C(=O)N(C)[C@H](C(=O)N(C)CC)CC(=O)N(C)[C@@H](C(C)C)C(=O)N[C@@H]([C@@H](C)CC)C(=O)N(C)CC(=O)N(C)[C@H]3C/C=C\CCN(C3=O)[C@@H](Cc3ccc(C(F)(F)F)cc3)C(=O)N(C)CC(=O)N[C@@H](CCc3cc(F)c(C(F)(F)F)c(F)c3)C(=O)N2C1 [PP2034],NRAS/KRAS (ratio of KD value with respect to NRAS to KD value with respect to KRAS),[1]; [5],A (a compound having 10 or more and less than 20 is denoted as A)
same,HRAS/KRAS (ratio of KD value with respect to HRAS to KD value with respect to KRAS),[2]; [6],A (a compound having 10 or more and less than 20 is denoted as A)
C=CCCCC[C@H]1C(=O)N[C@@H]([C@@H](C)CC)C(=O)N(C)CC(=O)N(C)[C@H]2CCCCN(C2=O)[C@@H](Cc2ccc(C(F)(F)F)cc2)C(=O)N(C)CC(=O)N[C@@H](CCc2cc(F)c(C(F)(F)F)c(F)c2)C(=O)N2C[C@H](OCC)C[C@H]2C(=O)N[C@](C)(CC=C)C(=O)N(C)[C@@H](C2CCCC2)C(=O)N(C)[C@H](C(=O)N2CCOCC2)CC(=O)N1C [PP0877],NRAS/KRAS (ratio of KD value with respect to NRAS to KD value with respect to KRAS),[1]; [3],C (A compound having a KD ratio of 0.1 or more and less than 3 is denoted as C)
same,HRAS/KRAS (ratio of KD value with respect to HRAS to KD value with respect to KRAS),[2]; [4],B (a compound having 3 or more and less than 10 is denoted as B)
CC[C@H](C)[C@@H]1NC(=O)[C@@H]2CCC/C=C/c3ccc(cc3)C[C@@H](C(=O)N(C)CC(=O)N[C@@H](CCc3ccc(Cl)c(Cl)c3)C(=O)N3C[C@H](OC4CCC4)C[C@H]3C(=O)NC3(CC(C)(C)C3)C(=O)N(C)[C@@H](C3CCCC3)C(=O)N(C)[C@H](C(=O)N3CCCC3)CC(=O)N2C)N2CC/C=C\C[C@@H](C2=O)N(C)C(=O)CN(C)C1=O [PP3053],NRAS/KRAS (ratio of KD value with respect to GDP-bound NRAS wild-type protein to KD value with respect to KRAS),"[1]; KD ratio NRAS/KRAS, SPR, GDP-bound wild-type proteins",A (a compound having 10 or more and less than 20 is denoted as A)
same,HRAS/KRAS (ratio of KD value with respect to GDP-bound HRAS wild-type protein to KD value with respect to KRAS),"[2]; KD ratio HRAS/KRAS, SPR, GDP-bound wild-type proteins",A (a compound having 10 or more and less than 20 is denoted as A)
CCCN1C(=O)CN(C)C(=O)CNC(=O)[C@H]([C@@H](C)CC)NC(=O)[C@H](CC(C)C)N(C)C(=O)C[C@@H](C(=O)N(C)C)NC(=O)[C@H](C2CCCC2)N(C)C(=O)C2(CCCC2)NC(=O)[C@@H]2CCCN2C(=O)[C@H](CCc2ccc(C(F)(F)F)c(Cl)c2)NC(=O)CN(C)C(=O)[C@@H]1Cc1ccc(C(F)(F)F)cc1 [PP0361] ([NMeL]IG[Sar][NPrPhe(4-CF3)][Sar][hPhe(3-Cl-4-CF3)]P[Ac5c][NMeGly(cPent)]D-NMe2; lactam N-11),NRAS/KRAS (ratio of KD for GDP-bound NRAS wild-type to KD for KRAS),"[1]; KD ratio NRAS/KRAS, SPR",B (a compound having 3 or more and less than 10 is denoted as B)
same,HRAS/KRAS (ratio of KD for GDP-bound HRAS wild-type to KD for KRAS),"[2]; KD ratio HRAS/KRAS, SPR",C (A compound having a KD ratio of 0.1 or more and less than 3 is denoted as C)

# From patent US20250230193A1, “CYCLIC COMPOUND HAVING SELECTIVE KRAS INHIBITORY EFFECT ON HRAS AND NRAS” (CHUGAI SEIYAKU KABUSHIKI KAISHA, priority 2022, published 2025)
